# Experimental data taken from ChEMBL document CHEMBL4680243, “N-benzyl 4,4-disubstituted piperidines as a potent class of influenza H1N1 virus inhibitors showing a novel mechanism of hemagglutinin fusion peptide interaction” (Eur J Med Chem, 2020).
# Calls of active or inactive are those of the source. No cut-off for these calls is given here.
# Assays:
# Influenza A virus [1] = assay: Antiviral activity against Influenza A virus (A/PR 8/34 (H1N1)) infected in MDCK cells assessed as reduction in virus-induced cytopathic effect measured after 72 hrs by MTS assay; format: functional, organism-based; details: A/Puerto Rico/8/1934(H1N1)
# [2] = target: T1, Cathepsin F (Homo sapiens) (UniProt Q9UBX1); assay: Inhibition of recombinant human cathepsin F expressed in baculovirus infected insect cells using Z-Phe-Arg-AMC as substrate preincubated for 15 mins followed by substrate addition and measured for 60 mins by fluorescence assay; details: time 75.0 min
# T1 sequence (whole entry): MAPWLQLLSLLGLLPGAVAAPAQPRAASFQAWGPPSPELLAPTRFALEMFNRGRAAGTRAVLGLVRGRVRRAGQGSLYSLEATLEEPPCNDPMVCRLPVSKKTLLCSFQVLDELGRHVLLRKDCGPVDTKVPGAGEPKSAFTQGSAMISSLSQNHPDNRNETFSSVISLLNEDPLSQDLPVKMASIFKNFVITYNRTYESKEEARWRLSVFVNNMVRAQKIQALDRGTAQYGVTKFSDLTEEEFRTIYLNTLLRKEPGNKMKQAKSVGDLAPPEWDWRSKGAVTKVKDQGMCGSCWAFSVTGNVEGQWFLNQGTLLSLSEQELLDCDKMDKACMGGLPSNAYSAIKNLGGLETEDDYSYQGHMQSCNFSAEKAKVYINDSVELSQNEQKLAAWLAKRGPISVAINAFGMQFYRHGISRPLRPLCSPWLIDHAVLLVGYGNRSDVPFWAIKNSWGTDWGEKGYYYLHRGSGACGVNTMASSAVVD
# Influenza A virus [3] = assay: Antiviral activity against Influenza A virus (A/PR 8/34 (H1N1)) infected in MDCK cells assessed as reduction in virus-induced cytopathic effect measured after 72 hrs by microscopic analysis; format: functional, organism-based; details: A/Puerto Rico/8/1934(H1N1)
# [4] = target: Procathepsin L (Homo sapiens) (UniProt P07711); assay: Inhibition of human liver cathepsin L using Z-Phe-Arg-AMC as substrate preincubated for 15 mins followed by substrate addition and measured for 60 mins by fluorescence assay; details: time 75.0 min
# Procathepsin L (Homo sapiens), sequence (P07711 114-333 limits assumed): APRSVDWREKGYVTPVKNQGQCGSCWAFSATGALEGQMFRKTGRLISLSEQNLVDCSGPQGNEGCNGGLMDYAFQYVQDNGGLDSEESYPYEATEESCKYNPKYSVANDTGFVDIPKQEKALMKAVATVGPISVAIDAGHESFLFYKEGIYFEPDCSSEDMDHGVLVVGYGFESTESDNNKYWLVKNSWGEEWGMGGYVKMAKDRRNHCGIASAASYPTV
# [5] = Cytotoxicity against MDCK cells assessed as reduction in cell viability measured after 72 hrs by MTS assay; format: cell-based, Canis lupus familiaris; details: dog
# [6] = target: T2, Transmembrane protease serine 11D (Homo sapiens) (UniProt O60235); assay: Inhibition of recombinant human N-terminal His-tagged HAT (Ala42 to Ile418 residues) expressed in mouse NSO cells using Boc-Gln-Ala-Arg-AMC as substrate preincubated for 15 mins followed by substrate addition and measured for 60 mins by fluorescence assay; details: time 75.0 min
# T2 sequence (whole entry): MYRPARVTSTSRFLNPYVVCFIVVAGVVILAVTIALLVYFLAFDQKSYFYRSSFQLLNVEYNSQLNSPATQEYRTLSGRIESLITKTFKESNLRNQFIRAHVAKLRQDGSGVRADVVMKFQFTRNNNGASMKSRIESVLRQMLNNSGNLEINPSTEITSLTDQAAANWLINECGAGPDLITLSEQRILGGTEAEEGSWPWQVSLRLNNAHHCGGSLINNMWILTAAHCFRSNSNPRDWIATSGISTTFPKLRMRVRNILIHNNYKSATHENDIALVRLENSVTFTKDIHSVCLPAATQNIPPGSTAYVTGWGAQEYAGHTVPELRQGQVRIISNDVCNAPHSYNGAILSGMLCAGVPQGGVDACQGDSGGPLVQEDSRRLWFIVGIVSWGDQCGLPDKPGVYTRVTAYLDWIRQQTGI
# [7] = Selectivity index, ratio of CC50 for MDCK cells to EC50 for antiviral activity against Influenza A virus (A/Puerto Rico/8/1934(H1N1)) infected in MDCK cells; format: toxicity, cell-based; details: dog, read-out: Ratio CC50/EC50
# [8] = Cytotoxicity against MDCK cells assessed as change in cell morphology measured after 72 hrs by microscopic analysis; format: cell-based, Canis lupus familiaris; details: dog
# [9] = target: Cathepsin B (Homo sapiens) (UniProt P07858); assay: Inhibition of human liver cathepsin B using Z-Phe-Arg-AMC as substrate preincubated for 15 mins followed by substrate addition and measured for 60 mins by fluorescence assay; details: time 75.0 min
# Trypsin (Homo sapiens) [10] = target: T3, Trypsin (Homo sapiens) (UniProt P07477+P07478+P35030); assay: Inhibition of human trypsin using Boc-Gln-Ala-Arg-AMC as substrate preincubated for 15 mins followed by substrate addition and measured for 60 mins by fluorescence assay; format: protein assay; details: time 75.0 min
# [11] = target: Cathepsin B (Homo sapiens) (UniProt P07858); assay: Inhibition of human liver cathepsin B at 1 uM using Z-Phe-Arg-AMC as substrate preincubated for 15 mins followed by substrate addition and measured for 60 mins by fluorescence assay; details: time 75.0 min
# [12] = target: T1, Cathepsin F (Homo sapiens); assay: Inhibition of recombinant human cathepsin F expressed in baculovirus infected insect cells at 1 uM using Z-Phe-Arg-AMC as substrate preincubated for 15 mins followed by substrate addition and measured for 60 mins by fluorescence assay relative to control; details: time 75.0 min
# [13] = target: Procathepsin L (Homo sapiens) (UniProt P07711); assay: Inhibition of human liver cathepsin L at 1 uM using Z-Phe-Arg-AMC as substrate preincubated for 15 mins followed by substrate addition and measured for 60 mins by fluorescence assay; details: time 75.0 min
# [14] = target: Hemagglutinin (Influenza A virus (A/Puerto Rico/8/1934(H1N1))) (UniProt P03452); assay: Inhibition of Influenza A virus (A/PR 8/34 (H1N1)) hemagglutinin infected in MDCK cells assessed as reduction in virus binding to cell surface at 200 uM relative to control; format: cell-based
# Hemagglutinin (Influenza A virus (A/Puerto Rico/8/1934(H1N1))), sequence (P03452 whole entry): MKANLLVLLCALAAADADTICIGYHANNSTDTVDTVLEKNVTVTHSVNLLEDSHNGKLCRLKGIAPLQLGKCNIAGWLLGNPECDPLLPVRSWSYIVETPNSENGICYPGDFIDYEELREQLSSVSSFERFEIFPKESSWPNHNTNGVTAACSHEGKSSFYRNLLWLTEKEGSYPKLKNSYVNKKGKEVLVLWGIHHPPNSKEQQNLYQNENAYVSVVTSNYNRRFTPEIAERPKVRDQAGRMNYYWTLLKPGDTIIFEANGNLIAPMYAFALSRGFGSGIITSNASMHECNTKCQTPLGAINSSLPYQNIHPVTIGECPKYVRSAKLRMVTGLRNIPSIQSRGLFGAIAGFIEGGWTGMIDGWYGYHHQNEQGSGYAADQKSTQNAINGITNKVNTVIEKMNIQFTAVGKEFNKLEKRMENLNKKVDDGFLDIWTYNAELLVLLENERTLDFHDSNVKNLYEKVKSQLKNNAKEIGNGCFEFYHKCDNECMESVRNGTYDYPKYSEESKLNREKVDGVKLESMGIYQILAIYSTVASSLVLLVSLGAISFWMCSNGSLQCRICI
# [15] = target: T2, Transmembrane protease serine 11D (Homo sapiens); assay: Inhibition of recombinant human N-terminal His-tagged HAT (Ala42 to Ile418 residues) expressed in mouse NSO cells at 1 uM using Boc-Gln-Ala-Arg-AMC as substrate preincubated for 15 mins followed by substrate addition and measured for 60 mins by fluorescence assay relative to control; details: time 75.0 min
# Trypsin (Homo sapiens) [16] = target: T3, Trypsin (Homo sapiens); assay: Inhibition of human trypsin at 1 uM using Boc-Gln-Ala-Arg-AMC as substrate preincubated for 15 mins followed by substrate addition and measured for 60 mins by fluorescence assay relative to control; format: protein assay; details: time 75.0 min
Compound,EC50 (Influenza A virus [1]) [µM],inhibition [2],EC50 (Influenza A virus [3]) [µM],inhibition [4],CC50 at 72 h [5] [µM],inhibition [6],selectivity ratio [7],MCC at 72 h [8] [µM],inhibition [9],inhibition (Trypsin (Homo sapiens) [10]),other results
CC(C)(C)OC(=O)N[C@@H](CC(N)=O)C(=O)N(Cc1ccc(F)cc1)C1(C(=O)NCc2ccccc2)CCN(Cc2ccccc2)CC1,2.1,inactive,1.8,inactive,> 100,inactive,26,> 100,inactive,inactive,–
CC(C)C[C@H](NC(=O)[C@@H]1C[C@H]1C(=O)O)C(=O)NCCCCNC(=N)N,–,–,–,–,–,–,–,–,–,–,inhibition [11]: Active; inhibition [12]: 50%; inhibition [13]: Active
CCCCCCCCCCCCCCCCCCCCCCOCC(C)(COCCCCCCCCCCCCCCCCCCCCCC)CO[C@]1(C(=O)O)C[C@H](OS(=O)(=O)O)[C@@H](NC(C)=O)[C@H]([C@H](O)[C@@H](COS(=O)(=O)O)OS(=O)(=O)O)O1,–,–,–,–,–,–,–,–,–,–,inhibition [14]: 96%
CN(C)C(=O)COC(=O)Cc1ccc(OC(=O)c2ccc(NC(=N)N)cc2)cc1,–,–,–,–,–,–,–,–,–,–,inhibition [15]: 90%; inhibition (Trypsin (Homo sapiens) [16]): 90%
COC(=O)C[C@H](NC(=O)OCc1ccccc1)C(=O)N(C1CC1)C1(C(=O)NCc2ccccc2)CCN(Cc2ccccc2)CC1,1.8,inactive,2,inactive,8.1,inactive,40,20,inactive,inactive,–
